Reference: US12692223B2, “Phenyl-sulfamoyl-benzoic acid derivatives as ERAP1-modulators” (GREY WOLF THERAPEUTICS LIMITED, priority 2021, dated 2026)

Molecular target: T1, ERAP1 (Homo sapiens, UniProt Q9NZ08)
T1 construct: Purified ERAP1(37-941)-10His (ERAP1)
Test: ERAP1 mediated hydrolysis of an amide substrate measured in a biochemical system (10-mer inhibition assay)
Settings: purified ERAP1(37-941)-10His; 10-mer substrate; 23° C. for 1 h; excitation 279 nm, emission 355 nm; read-out: IC50 vs Decapeptide WRVYEKC(Dnp)ALK-acid (where Dnp is Dinitrophenyl maleimide) (10-mer)
Method: Biological Assay 1: ERAP1 Mediated Hydrolysis of an Amide Substrate Measured in a Biochemical System
• 1× Assay buffer (AB): 25 mM Bis-tris propane, 0.05% w/v • Hydroxypropylmethylcellulose pH 7.75 made with Optima grade water • Decapeptide WRVYEKC(Dnp)ALK-acid (where Dnp is Dinitrophenyl maleimide) (10-mer) • L-Leucine 7-amido-4-methylcoumarin (L-AMC) • Purified ERAP1(37-941)-10His (ERAP1) Assay Procedure:
12.5 μL ERAP1 enzyme in 1×AB was combined with 250 nL test compound in DMSO. 12.5 μL of either 240 μM L-AMC in 1×AB or 100 μM 10-mer in 1×AB was added to the reaction and incubated at 23° C. for 1 h. For detection, plates were read at excitation 365 nm and emission 442 nm (L-AMC) or excitation 279 nm and emission 355 nm (10-mer). Compound IC50 was determined using a 4-parameter equation.

T1 sequence (Q9NZ08 37-941): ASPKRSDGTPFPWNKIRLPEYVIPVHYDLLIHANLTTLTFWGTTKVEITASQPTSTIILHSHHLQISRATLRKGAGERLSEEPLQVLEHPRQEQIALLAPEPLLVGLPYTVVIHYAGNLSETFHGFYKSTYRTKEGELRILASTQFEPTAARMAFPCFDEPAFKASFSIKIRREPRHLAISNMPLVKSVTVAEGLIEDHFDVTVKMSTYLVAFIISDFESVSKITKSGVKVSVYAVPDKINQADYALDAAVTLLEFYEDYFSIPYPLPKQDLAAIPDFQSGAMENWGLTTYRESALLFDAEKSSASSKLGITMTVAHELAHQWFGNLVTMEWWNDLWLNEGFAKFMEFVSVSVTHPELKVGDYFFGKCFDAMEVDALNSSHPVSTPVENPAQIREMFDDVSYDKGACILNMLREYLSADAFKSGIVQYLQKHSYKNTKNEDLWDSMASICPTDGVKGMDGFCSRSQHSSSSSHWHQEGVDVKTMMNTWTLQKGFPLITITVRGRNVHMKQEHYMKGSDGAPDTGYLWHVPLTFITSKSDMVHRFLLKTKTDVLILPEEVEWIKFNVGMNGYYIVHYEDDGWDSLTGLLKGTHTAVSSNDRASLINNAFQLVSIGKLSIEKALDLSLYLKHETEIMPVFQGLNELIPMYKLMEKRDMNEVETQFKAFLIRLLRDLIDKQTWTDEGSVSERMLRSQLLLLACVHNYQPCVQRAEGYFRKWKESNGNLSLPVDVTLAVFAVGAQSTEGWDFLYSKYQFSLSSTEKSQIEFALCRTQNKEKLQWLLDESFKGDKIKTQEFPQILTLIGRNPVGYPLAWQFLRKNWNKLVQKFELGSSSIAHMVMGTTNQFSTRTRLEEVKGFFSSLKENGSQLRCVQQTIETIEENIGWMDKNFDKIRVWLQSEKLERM

SMILES	IC50
CCc1ccc(C(=O)O)cc1S(=O)(=O)Nc1cc(C(F)(F)F)ccc1OC1CCCC1 [Example 5, 3-(N-(2-(cyclopentyloxy)−5-(trifluoromethyl)phenyl)sulfamoyl)-4-ethylbenzoic acid]	> 5 nM
N#Cc1ccc(OC2CCCC2)c(NS(=O)(=O)c2cc(C(=O)O)ccc2C2CC2)c1 [Example 6, 3-(N-(5-cyano-2-(cyclopentyloxy)phenyl)sulfamoyl)-4-cyclopropylbenzoic acid]	1 to 5 nM
CCc1ccc(C(=O)O)cc1S(=O)(=O)Nc1cc(C(F)(F)F)ccc1OC1CCC1 [Example 7, 3-(N-(2-cyclobutoxy-5-(trifluoromethyl)phenyl)sulfamoyl)-4-ethylbenzoic acid]	> 5 nM
N#Cc1cc(NS(=O)(=O)c2cc(C(=O)O)ccc2C2CC2)c(OC2CCC2)cc1Cl [Example 12, 3-(N-(4-chloro-5-cyano-2-cyclobutoxyphenyl)sulfamoyl)-4-cyclopropylbenzoic acid]	< 1 nM
N#Cc1cc(NS(=O)(=O)c2cc(C(=O)O)ccc2C2CC2)c(OC2CC(F)(F)C2)cc1Cl [Example 13, 3-(N-(4-chloro-5-cyano-2-(3,3-difluorocyclobutoxy)phenyl)sulfamoyl)-4-cyclopropylbenzoic acid]	1 to 5 nM
N#Cc1cc(F)c(OC2CCCC2)c(NS(=O)(=O)c2cc(C(=O)O)ccc2C2CC2)c1 [Example 14, 3-(N-(5-cyano-2-(cyclopentyloxy)−3-fluorophenyl)sulfamoyl)-4-cyclopropylbenzoic acid]	> 5 nM
Cc1cc(C#N)cc(NS(=O)(=O)c2cc(C(=O)O)ccc2C2CC2)c1OC1CCCC1 [Example 15, 3-(N-(5-cyano-2-(cyclopentyloxy)−3-methylphenyl)sulfamoyl)-4-cyclopropylbenzoic acid]	> 5 nM
N#Cc1cc(NS(=O)(=O)c2cc(C(=O)O)c(F)cc2C2CC2)c(OC2CC(F)(F)C2)cc1Cl [Example 17, 5-(N-(4-chloro-5-cyano-2-(3,3-difluorocyclobutoxy)phenyl)sulfamoyl)-4-cyclopropyl-2-fluorobenzoic acid]	< 1 nM
N#Cc1cc(Cl)c(OC2CCCC2)c(NS(=O)(=O)c2cc(C(=O)O)ccc2C2CC2)c1 [Example 19, 3-(N-(3-chloro-5-cyano-2-(cyclopentyloxy)phenyl)sulfamoyl)-4-cyclopropylbenzoic acid]	1 to 5 nM
O=C(O)c1ccc(C2CC2)c(S(=O)(=O)Nc2cc(-c3ccns3)c(F)cc2OC2CCCC2)c1 [Example 21, 3-(N-(2-(cyclopentyloxy)-4-fluoro-5-(isothiazol-5-yl)phenyl)sulfamoyl)-4-cyclopropylbenzoic acid]	1 to 5 nM
Cc1cc(C2CC2)c(S(=O)(=O)Nc2cc(C#N)c(Cl)cc2OC2CCCC2)cc1C(=O)O [Example 26, 5-(N-(4-chloro-5-cyano-2-(cyclopentyloxy)phenyl)sulfamoyl)-4-cyclopropyl-2-methylbenzoic acid]	1 to 5 nM
CC1(COc2cc(Cl)c(C#N)cc2NS(=O)(=O)c2cc(C(=O)O)ccc2C2CC2)CCC1 [Example 27, 3-(N-(4-chloro-5-cyano-2-((1-methylcyclobutyl)methoxy)phenyl)sulfamoyl)-4-cyclopropylbenzoic acid]	< 1 nM
N#Cc1cc(NS(=O)(=O)c2cc(C(=O)O)ccc2C2CC2)c(OCC2CCOC2)cc1Cl (stereo not drawn) [Example 28, 3-(N-(4-chloro-5-cyano-2-((tetrahydrofuran-3-yl)methoxy)phenyl)sulfamoyl)-4-cyclopropylbenzoic acid]	1 to 5 nM
N#Cc1cc(NS(=O)(=O)c2cc(C(=O)O)ccc2C2CC2)c(OC2CCC23COC3)cc1Cl (stereo not drawn) [Example 29, 3-(N-(2-((2-oxaspiro[3.3]heptan-5-yl)oxy)-4-chloro-5-cyanophenyl)sulfamoyl)-4-cyclopropylbenzoic acid]	< 1 nM
C#CC1(Oc2cc(Cl)c(C#N)cc2NS(=O)(=O)c2cc(C(=O)O)ccc2C2CC2)CCCC1 [Example 30, 3-(N-(4-chloro-5-cyano-2-((1-ethynylcyclopentyl)oxy)phenyl)sulfamoyl)-4-cyclopropylbenzoic acid]	1 to 5 nM
N#Cc1cc(NS(=O)(=O)c2cc(C(=O)O)ccc2C2CC2)c(OCC2CC(F)(F)C2)cc1Cl [Example 31, 3-(N-(4-chloro-5-cyano-2-((3,3-difluorocyclobutyl)methoxy)phenyl)sulfamoyl)-4-cyclopropylbenzoic acid]	1 to 5 nM

Next, values leading:

IC50	SMILES
< 1 nM	O=C(O)c1ccc(C2CC2)c(S(=O)(=O)Nc2cc(-n3cnnn3)ccc2OC2CCCC2)c1 [Example 8, 3-(N-(2-(cyclopentyloxy)-5-(1H-tetrazol-1-yl)phenyl)sulfamoyl)-4-cyclopropylbenzoic acid]
< 1 nM	O=C(O)c1ccc(C2CC2)c(S(=O)(=O)Nc2cc(-n3cnnn3)c(F)cc2OC2CCCC2)c1 [Example 9, 3-(N-(2-(cyclopentyloxy)-4-fluoro-5-(1H-tetrazol-1-yl)phenyl)sulfamoyl)-4-cyclopropylbenzoic acid]
< 1 nM	O=C(O)c1ccc(C2CC2)c(S(=O)(=O)Nc2cc(-n3cnnn3)c(Cl)cc2OC2CCCC2)c1 [Example 10, 3-(N-(4-chloro-2-(cyclopentyloxy)−5-(1H-tetrazol-1-yl)phenyl)sulfamoyl)-4-cyclopropylbenzoic acid]
< 1 nM	N#Cc1cc(NS(=O)(=O)c2cc(C(=O)O)ccc2C2CC2)c(OC2CCCC2)cc1F [Example 11, 3-(N-(5-cyano-2-(cyclopentyloxy)-4-fluorophenyl)sulfamoyl)-4-cyclopropylbenzoic acid]
< 1 nM	N#Cc1cc(NS(=O)(=O)c2cc(C(=O)O)c(F)cc2C2CC2)c(OC2CCCC2)cc1Cl [Example 16, 5-(N-(4-chloro-5-cyano-2-(cyclopentyloxy)phenyl)sulfamoyl)-4-cyclopropyl-2-fluorobenzoic acid]
< 1 nM	N#Cc1cc(NS(=O)(=O)c2cc(C(=O)O)cc(F)c2C2CC2)c(OC2CCCC2)cc1Cl [Example 18, 3-(N-(4-chloro-5-cyano-2-(cyclopentyloxy)phenyl)sulfamoyl)-4-cyclopropyl-5-fluorobenzoic acid]
< 1 nM	O=C(O)c1ccc(C2CC2)c(S(=O)(=O)Nc2cc(-c3ccns3)ccc2OC2CCCC2)c1 [Example 20, 3-(N-(2-(cyclopentyloxy)-5-(isothiazol-5-yl)phenyl)sulfamoyl)-4-cyclopropylbenzoic acid]
< 1 nM	O=C(O)c1ccc(C2CC2)c(S(=O)(=O)Nc2cc(-c3ccns3)c(Cl)cc2OC2CCCC2)c1 [Example 22, 3-(N-(4-chloro-2-(cyclopentyloxy)−5-(isothiazol-5-yl)phenyl)sulfamoyl)-4-cyclopropylbenzoic acid]
< 1 nM	Cc1oncc1-c1ccc(OC2CCCC2)c(NS(=O)(=O)c2cc(C(=O)O)ccc2C2CC2)c1 [Example 23, 3-(N-(2-(cyclopentyloxy)-5-(5-methylisoxazol-4-yl)phenyl)sulfamoyl)-4-cyclopropylbenzoic acid]
< 1 nM	Cc1oncc1-c1cc(NS(=O)(=O)c2cc(C(=O)O)ccc2C2CC2)c(OC2CCCC2)cc1F [Example 24, 3-(N-(2-(cyclopentyloxy)-4-fluoro-5-(5-methylisoxazol-4-yl)phenyl)sulfamoyl)-4-cyclopropylbenzoic acid]
< 1 nM	Cc1oncc1-c1cc(NS(=O)(=O)c2cc(C(=O)O)ccc2C2CC2)c(OC2CCCC2)cc1Cl [Example 25, 3-(N-(4-chloro-2-(cyclopentyloxy)−5-(5-methylisoxazol-4-yl)phenyl)sulfamoyl)-4-cyclopropylbenzoic acid]
